Key:
[1] = for molar entropy: 101.33 kPa; for Normal melting temperature: DTA
[2] = Molar enthalpy of transition or fusion; conditions: Crystal; DSC

OC[C@H](O)C(O)[C@@H](O)CO [L-(-)-arabitol]
[1]
Conditions | molar entropy [J/K/mol]
1 K, Crystal, relaxation calorimetry | 0.0005209
2 K, Crystal, relaxation calorimetry | 0.002213
3 K, Crystal, relaxation calorimetry | 0.006332
4 K, Crystal, relaxation calorimetry | 0.0143
5 K, Crystal, relaxation calorimetry | 0.0278
6 K, Crystal, relaxation calorimetry | 0.04885
7 K, Crystal, relaxation calorimetry | 0.07993
8 K, Crystal, relaxation calorimetry | 0.1243
9 K, Crystal, relaxation calorimetry | 0.1854
10 K, Crystal, relaxation calorimetry | 0.2663
15 K, Crystal, relaxation calorimetry | 1.038
20 K, Crystal, relaxation calorimetry | 2.479
25 K, Crystal, relaxation calorimetry | 4.532
30 K, Crystal, relaxation calorimetry | 7.074
35 K, Crystal, relaxation calorimetry | 9.99
40 K, Crystal, relaxation calorimetry | 13.19
45 K, Crystal, relaxation calorimetry | 16.61
50 K, Crystal, relaxation calorimetry | 20.19
55 K, Crystal, relaxation calorimetry | 23.88
60 K, Crystal, relaxation calorimetry | 27.65
65 K, Crystal, relaxation calorimetry | 31.48
70 K, Crystal, relaxation calorimetry | 35.36
75 K, Crystal, relaxation calorimetry | 39.27
80 K, Crystal, relaxation calorimetry | 43.19
85 K, Crystal, relaxation calorimetry | 47.12
90 K, Crystal, relaxation calorimetry | 51.04
95 K, Crystal, relaxation calorimetry | 54.97
100 K, Crystal, relaxation calorimetry | 58.89
110 K, Crystal, relaxation calorimetry | 66.69
120 K, Crystal, relaxation calorimetry | 74.44
130 K, Crystal, relaxation calorimetry | 82.11
140 K, Crystal, relaxation calorimetry | 89.7
150 K, Crystal, relaxation calorimetry | 97.21
160 K, Crystal, relaxation calorimetry | 104.63
170 K, Crystal, relaxation calorimetry | 111.97
180 K, Crystal, relaxation calorimetry | 119.24
190 K, Crystal, relaxation calorimetry | 126.44
200 K, Crystal, relaxation calorimetry | 133.58
210 K, Crystal, relaxation calorimetry | 140.66
220 K, Crystal, relaxation calorimetry | 147.69
230 K, Crystal, relaxation calorimetry | 154.69
240 K, Crystal, relaxation calorimetry | 161.65
250 K, Crystal, relaxation calorimetry | 168.59
260 K, Crystal, relaxation calorimetry | 175.51
270 K, Crystal, relaxation calorimetry | 182.43
273.15 K, Crystal, relaxation calorimetry | 184.6
280 K, Crystal, relaxation calorimetry | 189.34
290 K, Crystal, relaxation calorimetry | 196.25
298.15 K, Crystal, relaxation calorimetry | 201.89
300 K, Crystal, relaxation calorimetry | 203.17
305 K, Crystal, Small sample (50 mg) DSC | 206.64
310 K, Crystal, Small sample (50 mg) DSC | 210.13
315 K, Crystal, Small sample (50 mg) DSC | 213.64
320 K, Crystal, Small sample (50 mg) DSC | 217.18
325 K, Crystal, Small sample (50 mg) DSC | 220.73
330 K, Crystal, Small sample (50 mg) DSC | 224.32
335 K, Crystal, Small sample (50 mg) DSC | 227.93
340 K, Crystal, Small sample (50 mg) DSC | 231.6
345 K, Crystal, Small sample (50 mg) DSC | 235.34
350 K, Crystal, Small sample (50 mg) DSC | 239.2
355 K, Crystal, Small sample (50 mg) DSC | 243.24
360 K, Crystal, Small sample (50 mg) DSC | 247.71
380 K, Liquid, Small sample (50 mg) DSC | 355.56
385 K, Liquid, Small sample (50 mg) DSC | 361.46
390 K, Liquid, Small sample (50 mg) DSC | 367.15
395 K, Liquid, Small sample (50 mg) DSC | 372.77
400 K, Liquid, Small sample (50 mg) DSC | 378.34
405 K, Liquid, Small sample (50 mg) DSC | 383.87
410 K, Liquid, Small sample (50 mg) DSC | 389.35
415 K, Liquid, Small sample (50 mg) DSC | 394.8

Conditions | Normal melting temperature [°C]
[1], Crystal | 96.70

Conditions | Molar enthalpy of transition or fusion [kcal/mol]
[2] | 8.79

O[C@H]1[C@H](O)[C@@H](O)[C@H](O)[C@@H](O)[C@H]1O [cis-1,2,3,5-trans-4,6-cyclohexanehexol]
[1]
Conditions | molar entropy [J/K/mol]
1 K, Crystal, relaxation calorimetry | 0.001133
2 K, Crystal, relaxation calorimetry | 0.00457
3 K, Crystal, relaxation calorimetry | 0.01283
4 K, Crystal, relaxation calorimetry | 0.0288
5 K, Crystal, relaxation calorimetry | 0.05587
6 K, Crystal, relaxation calorimetry | 0.09786
7 K, Crystal, relaxation calorimetry | 0.1588
8 K, Crystal, relaxation calorimetry | 0.2429
9 K, Crystal, relaxation calorimetry | 0.3528
10 K, Crystal, relaxation calorimetry | 0.4907
15 K, Crystal, relaxation calorimetry | 1.619
20 K, Crystal, relaxation calorimetry | 3.401
25 K, Crystal, relaxation calorimetry | 5.648
30 K, Crystal, relaxation calorimetry | 8.19
35 K, Crystal, relaxation calorimetry | 10.93
40 K, Crystal, relaxation calorimetry | 13.82
45 K, Crystal, relaxation calorimetry | 16.84
50 K, Crystal, relaxation calorimetry | 19.96
55 K, Crystal, relaxation calorimetry | 23.14
60 K, Crystal, relaxation calorimetry | 26.38
65 K, Crystal, relaxation calorimetry | 29.66
70 K, Crystal, relaxation calorimetry | 33
75 K, Crystal, relaxation calorimetry | 36.38
80 K, Crystal, relaxation calorimetry | 39.8
85 K, Crystal, relaxation calorimetry | 43.26
90 K, Crystal, relaxation calorimetry | 46.76
95 K, Crystal, relaxation calorimetry | 50.29
100 K, Crystal, relaxation calorimetry | 53.84
110 K, Crystal, relaxation calorimetry | 61.01
120 K, Crystal, relaxation calorimetry | 68.23
130 K, Crystal, relaxation calorimetry | 75.5
140 K, Crystal, relaxation calorimetry | 82.8
150 K, Crystal, relaxation calorimetry | 90.1
160 K, Crystal, relaxation calorimetry | 97.42
170 K, Crystal, relaxation calorimetry | 104.72
180 K, Crystal, relaxation calorimetry | 112.03
190 K, Crystal, relaxation calorimetry | 119.33
200 K, Crystal, relaxation calorimetry | 126.62
210 K, Crystal, relaxation calorimetry | 133.91
220 K, Crystal, relaxation calorimetry | 141.19
230 K, Crystal, relaxation calorimetry | 148.47
240 K, Crystal, relaxation calorimetry | 155.74
250 K, Crystal, relaxation calorimetry | 163.02
260 K, Crystal, relaxation calorimetry | 170.3
270 K, Crystal, relaxation calorimetry | 177.58
273.15 K, Crystal, relaxation calorimetry | 179.88
280 K, Crystal, relaxation calorimetry | 184.87
290 K, Crystal, relaxation calorimetry | 192.17
298.15 K, Crystal, relaxation calorimetry | 198.12
300 K, Crystal, relaxation calorimetry | 199.48
305 K, Crystal, Small sample (50 mg) DSC | 203.13
310 K, Crystal, Small sample (50 mg) DSC | 206.81
315 K, Crystal, Small sample (50 mg) DSC | 210.5
320 K, Crystal, Small sample (50 mg) DSC | 214.2
325 K, Crystal, Small sample (50 mg) DSC | 217.91
330 K, Crystal, Small sample (50 mg) DSC | 221.64
335 K, Crystal, Small sample (50 mg) DSC | 225.37
340 K, Crystal, Small sample (50 mg) DSC | 229.11
345 K, Crystal, Small sample (50 mg) DSC | 232.86
350 K, Crystal, Small sample (50 mg) DSC | 236.62
355 K, Crystal, Small sample (50 mg) DSC | 240.38
360 K, Crystal, Small sample (50 mg) DSC | 244.15
365 K, Crystal, Small sample (50 mg) DSC | 247.92
370 K, Crystal, Small sample (50 mg) DSC | 251.69
375 K, Crystal, Small sample (50 mg) DSC | 255.47
380 K, Crystal, Small sample (50 mg) DSC | 259.25
385 K, Crystal, Small sample (50 mg) DSC | 263.03
390 K, Crystal, Small sample (50 mg) DSC | 266.82
395 K, Crystal, Small sample (50 mg) DSC | 270.6
400 K, Crystal, Small sample (50 mg) DSC | 274.38
405 K, Crystal, Small sample (50 mg) DSC | 278.16
410 K, Crystal, Small sample (50 mg) DSC | 281.94
415 K, Crystal, Small sample (50 mg) DSC | 285.72
420 K, Crystal, Small sample (50 mg) DSC | 289.5
425 K, Crystal, Small sample (50 mg) DSC | 293.27
430 K, Crystal, Small sample (50 mg) DSC | 297.05
435 K, Crystal, Small sample (50 mg) DSC | 300.82
440 K, Crystal, Small sample (50 mg) DSC | 304.59
445 K, Crystal, Small sample (50 mg) DSC | 308.35
450 K, Crystal, Small sample (50 mg) DSC | 312.12
455 K, Crystal, Small sample (50 mg) DSC | 315.89
460 K, Crystal, Small sample (50 mg) DSC | 319.66
465 K, Crystal, Small sample (50 mg) DSC | 323.43
470 K, Crystal, Small sample (50 mg) DSC | 327.21
475 K, Crystal, Small sample (50 mg) DSC | 331
480 K, Crystal, Small sample (50 mg) DSC | 334.8
485 K, Crystal, Small sample (50 mg) DSC | 338.61
490 K, Crystal, Small sample (50 mg) DSC | 342.46
495 K, Crystal, Small sample (50 mg) DSC | 346.55
510 K, Liquid, Small sample (50 mg) DSC | 453.9
515 K, Liquid, Small sample (50 mg) DSC | 458.89
520 K, Liquid, Small sample (50 mg) DSC | 463.79
525 K, Liquid, Small sample (50 mg) DSC | 468.65
530 K, Liquid, Small sample (50 mg) DSC | 473.46
535 K, Liquid, Small sample (50 mg) DSC | 478.23
540 K, Liquid, Small sample (50 mg) DSC | 482.95

Conditions | Normal melting temperature [°C]
[1], Crystal | 224.58

Conditions | Molar enthalpy of transition or fusion [kcal/mol]
[2] | 12

Reference: the NIST ThermoML archive (doi:10.1016/j.jct.2017.08.004)
